Source: patent US20050112058A1, “Auger effect-based cancer therapy method” (Ben-Gurion University of the Negev, priority 2002, published 2005)
Read-outs that look alike come from different tables or passages of the source.

Tests used:
DNA = conditions: for Fluorescent Intensity: 7.5 μg DNA, 7.5 μl ethidium bromide buffer
Procedure: A stock solution of 1.26 μM ethidium bromide containing 2 mM HEPES, 8 mM sodium chloride and 0.05 mM EDTA (pH=7) was prepared.

B16 melanoma = conditions: 40 mg/kg intraperitoneal, samples up to 72 hours after injection, compared with TCA-insoluble fraction
Procedure: Tissue samples were taken up to 72 hours after the injection. The samples were treated with trichloroacetic acid (TCA), such that the TCA-insoluble fraction contained the DNA and high molecular weight proteins, and the TCA-soluble fraction contained the cytoplasmic and membrane components of the cells. Inductively-coupled plasma mass spectrometry (ICP-MS) was used to measure the concentration of indium ions in the TCA-insoluble and TCA-soluble fractions.

[1] = system: KHJJ murine mammary carcinoma tumors; experiment: Auger electron therapy: tumor volume after 103Pd brachytherapy seed implantation with or without PtTMPyP(4); type: in vivo, BALB/C mice; conditions: for Tumor volume, mm^3 ± standard error, Auger Electron Therapy: 103 Pd seeds in combination with PtTMPyP(4): with 103Pd seeds
Procedure: General description. On day 0, after measurements of the length, width and height of the tumors, palladium-103 brachytherapy seeds were implanted into 12 KHJJ murine mammary carcinoma tumors borne on the thighs of 12 BALB/C mice. Twenty-four hours after seed implantation, 40 mg/kg, platinum (II)-tetrakis(N-methyl-4-pyridyl) porphyrin [PtTMPyP(4)], in the form of its chloride salt, was administered i.p. as a single bolus injection of 200 μl to the six mice undergoing AET. Tumor volume measurements were obtained two to three times weekly. Drug was also administered on days 5 (30 mg/kg), and 19 (20 mg/kg) following seed implantation.
Tumor. Prior to the experiment, tumors were excised from the donor mouse in a sterile environment, and fragmented into 1-2 mm sections in a Petri dish. After anesthetizing each mouse with ketamine/xylazine (10:1), a small slit was prepared through the skin on the thigh, ˜5 mm above and lateral to the distal femur of the right knee. To assure subcutaneous implantation of the tumor fragment, a magnifying glass with a fluorescent light was used to observe the sheen on the fascia surrounding the three sides of the ‘pocket’ produced by the slit. An 18 gauge trochar, into whose bevel a tumor fragment had been inserted, was positioned into the ‘pocket’. A stylette was used to push the fragment into the ‘pocket’. Tumors were implanted either 12 or 15 days prior to the experiment. Upon verification of tumor growth, those tumors of adequate size to accommodate the seed implant, were randomized into treatment groups (AET or radiation only) using a coin flip.
Measurements of tumor volume. Using a digital caliper, the length, width, and height of the tumors were measured. Being ellipsoid in their growth pattern, tumor volume was determined according to the formula, […].
Seed implantation. On day 0, after weighing the mice and measuring the length, width and height of the tumors, palladium-103 brachytherapy seeds (˜2.2 mCi in activity; Theragenics) were implanted into the thigh tumors as follows. The anesthetized mouse was positioned on a board whose angle was ˜45°. The tumor bearing leg was inserted through an elastic band, secured through the board. The foot was taped to the board. An 18 gauge trochar with a funnel head that was supported by a brace on a ring stand, was inserted into the center to the tumor. The seed, previously sterilized by dipping in ETOH, rinsing in a sterile PBS solution, and air-dried, was placed in the funnel of the trochar using long-nosed forceps. A stylette was used to insert the seed into the tumor, after which the trochar was withdrawn from the tumor and Neosporin was applied to the wound.
Drug delivery. The day after seed implantation (day 1), 40 mg/kg of PtTMPyP(4), in the form of its chloride salt, was administered intraperitoneally to the mice in the AET treatment group. On day 5, […] of PtTMPyP(4) was injected i.p., and on day 19, a dosage of 20 mg/kg was injected i.p.

C[n+]1ccc(-c2c3nc(c(-c4cc[n+](C)cc4)c4ccc([n-]4)c(-c4cc[n+](C)cc4)c4nc(c(-c5cc[n+](C)cc5)c5ccc2[n-]5)C=C4)C=C3)cc1.[In+3] [In^3+-tetra(N-methyl-4-pyridyl)-porphyrin]
Fluorescent Intensity (DNA; 0.25 μg complex): 85% | Fluorescent Intensity (DNA; 0.50 μg complex): 73% | Fluorescent Intensity (DNA; 0.75 μg complex): 63% | Fluorescent Intensity (DNA; 1.00 μg complex): 54% | Fluorescent Intensity (DNA; 1.25 μg complex): 47% | Fluorescent Intensity (DNA; 1.50 μg complex): 41% | Fluorescent Intensity (DNA; 1.75 μg complex): 35% | Fluorescent Intensity (DNA; 2.00 μg complex): 30% | Fluorescent Intensity (DNA; 2.25 μg complex): 26% | Fluorescent Intensity (DNA; 2.50 μg complex): 22% | Fluorescent Intensity (DNA; 2.75 μg complex): 19% | Fluorescent Intensity (DNA; 3.00 μg complex): 16% | Fluorescent Intensity (DNA; 3.25 μg complex): 13.4% | Fluorescent Intensity (DNA; 3.50 μg complex): 12% | Fluorescent Intensity (DNA; 3.75 μg complex): 10% | Fluorescent Intensity (DNA; 4.00 μg complex): 9% | binding to DNA by displacement of ethidium bromide (in words) (DNA; fluorescence decreases with increasing complex concentration, FIG. 2): displaces the ethidium bromide and becomes bound to the DNA | number of indium ions per cell in the TCA-soluble fraction (cytoplasmic and membrane components) (B16 melanoma): lesser amount

CN1C=CC(c2c3nc(c(C4=CCN(C)C=C4)c4ccc([nH]4)c(C4=CCN(C)C=C4)c4nc(c(C5=CCN(C)C=C5)c5ccc2[nH]5)C=C4)C=C3)=CC1.[Pt+2] [PtTMPyP(4), platinum (II)-tetrakis(N-methyl-4-pyridyl) porphyrin]
effect on tumor growth compared with radiation alone or no treatment (in words) ([1]; AET group, FIG. 4, mean tumor volume): significant delay in tumor control | Tumor volume, mm^3 ± standard error, Auger Electron Therapy: 103 Pd seeds in combination with PtTMPyP(4) ([1]; day 0 post seed implantation (before first drug dose)): 117.5 ± 18.6 mm^3 | Tumor volume, mm^3 ± standard error, Auger Electron Therapy: 103 Pd seeds in combination with PtTMPyP(4) ([1]; day 3 post seed implantation, i.p. 40 mg/kg day 1, 30 day 5, 20 day 19): 112.8 ± 15.3 mm^3 | Tumor volume, mm^3 ± standard error, Auger Electron Therapy: 103 Pd seeds in combination with PtTMPyP(4) ([1]; day 5 post seed implantation, i.p. 40 mg/kg day 1, 30 day 5, 20 day 19): 110.6 ± 25.7 mm^3 | Tumor volume, mm^3 ± standard error, Auger Electron Therapy: 103 Pd seeds in combination with PtTMPyP(4) ([1]; day 7 post seed implantation, i.p. 40 mg/kg day 1, 30 day 5, 20 day 19): 121.5 ± 29.4 mm^3 | Tumor volume, mm^3 ± standard error, Auger Electron Therapy: 103 Pd seeds in combination with PtTMPyP(4) ([1]; day 9 post seed implantation, i.p. 40 mg/kg day 1, 30 day 5, 20 day 19): 123.1 ± 26.9 mm^3 | Tumor volume, mm^3 ± standard error, Auger Electron Therapy: 103 Pd seeds in combination with PtTMPyP(4) ([1]; day 12 post seed implantation, i.p. 40 mg/kg day 1, 30 day 5, 20 day 19): 150.7 ± 31.5 mm^3 | Tumor volume, mm^3 ± standard error, Auger Electron Therapy: 103 Pd seeds in combination with PtTMPyP(4) ([1]; day 15 post seed implantation, i.p. 40 mg/kg day 1, 30 day 5, 20 day 19): 116.5 ± 44.9 mm^3 | Tumor volume, mm^3 ± standard error, Auger Electron Therapy: 103 Pd seeds in combination with PtTMPyP(4) ([1]; day 19 post seed implantation, i.p. 40 mg/kg day 1, 30 day 5, 20 day 19): 175.6 ± 69.2 mm^3 | Tumor volume, mm^3 ± standard error, Auger Electron Therapy: 103 Pd seeds in combination with PtTMPyP(4) ([1]; day 21 post seed implantation, i.p. 40 mg/kg day 1, 30 day 5, 20 day 19): 200.1 ± 81.9 mm^3 | Tumor volume, mm^3 ± standard error, Auger Electron Therapy: 103 Pd seeds in combination with PtTMPyP(4) ([1]; day 23 post seed implantation, i.p. 40 mg/kg day 1, 30 day 5, 20 day 19): 232.6 ± 91.2 mm^3 | Tumor volume, mm^3 ± standard error, Auger Electron Therapy: 103 Pd seeds in combination with PtTMPyP(4) ([1]; day 27 post seed implantation, i.p. 40 mg/kg day 1, 30 day 5, 20 day 19): 280.2 ± 90.6 mm^3 | factor between mean tumor volume with seeds only and with seeds plus drug ([1]; day 32, 103Pd seeds alone versus 103Pd seeds plus PtTMPyP(4)): 5 | Tumor volume, mm^3 ± standard error, Auger Electron Therapy: 103 Pd seeds in combination with PtTMPyP(4) ([1]; day 32 post seed implantation, i.p. 40 mg/kg day 1, 30 day 5, 20 day 19, 40 mg/kg): 356.2 ± 133.9 mm^3
